For experiment [1], the target named is Glutamate receptor ionotropic, NMDA 1 (Rattus norvegicus, UniProt P35439).
Experiment [2] has as its target Beta-1 adrenergic receptor (Homo sapiens, UniProt P08588). Format: functional.
Experiment [3] addresses Voltage-gated inwardly rectifying potassium channel KCNH2 (Homo sapiens, UniProt Q12809). Format: functional.
Experiment [4] addresses T1, Alpha-2A adrenergic receptor (Homo sapiens, UniProt P08913).
T1 sequence (P08913 whole entry): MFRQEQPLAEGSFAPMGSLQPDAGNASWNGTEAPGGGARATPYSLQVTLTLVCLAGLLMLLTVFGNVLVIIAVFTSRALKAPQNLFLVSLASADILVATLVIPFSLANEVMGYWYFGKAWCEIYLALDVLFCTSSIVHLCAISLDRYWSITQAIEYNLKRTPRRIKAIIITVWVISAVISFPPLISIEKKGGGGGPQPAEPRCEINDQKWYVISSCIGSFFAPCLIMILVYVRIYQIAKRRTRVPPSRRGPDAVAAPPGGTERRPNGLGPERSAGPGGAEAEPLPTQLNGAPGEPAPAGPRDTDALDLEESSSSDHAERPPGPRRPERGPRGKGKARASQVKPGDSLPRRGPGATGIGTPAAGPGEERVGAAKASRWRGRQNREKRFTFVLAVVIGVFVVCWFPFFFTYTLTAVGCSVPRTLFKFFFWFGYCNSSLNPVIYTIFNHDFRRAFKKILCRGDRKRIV
It counts as functional, cell-based.

In experiment [5] the target is T2, Cholecystokinin receptor type A (Homo sapiens, UniProt P32238).
T2 sequence (P32238 whole entry): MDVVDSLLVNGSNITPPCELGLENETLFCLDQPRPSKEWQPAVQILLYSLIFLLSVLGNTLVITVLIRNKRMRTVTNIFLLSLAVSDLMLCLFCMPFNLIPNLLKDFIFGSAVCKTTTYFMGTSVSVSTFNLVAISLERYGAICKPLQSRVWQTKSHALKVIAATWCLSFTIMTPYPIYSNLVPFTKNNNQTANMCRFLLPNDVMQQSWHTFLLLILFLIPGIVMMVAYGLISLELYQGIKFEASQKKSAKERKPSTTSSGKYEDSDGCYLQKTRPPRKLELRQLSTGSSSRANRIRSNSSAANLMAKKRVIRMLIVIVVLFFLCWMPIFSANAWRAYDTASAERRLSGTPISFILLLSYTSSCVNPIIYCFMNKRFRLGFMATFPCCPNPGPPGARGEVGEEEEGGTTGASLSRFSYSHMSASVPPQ

Experiment [6] has as its target Growth hormone secretagogue receptor type 1 (Homo sapiens, UniProt Q92847).
The target in experiment [7] is 5-hydroxytryptamine receptor 2B (Homo sapiens, UniProt P41595). It counts as functional, cell-based.
The target of another experiment is Vasopressin V2 receptor (Homo sapiens, UniProt P30518).
Experiment [8] has as its target 3',5'-cyclic-AMP phosphodiesterase 4D (Homo sapiens, UniProt Q08499). Format: functional.
Experiment [9] has as its target T3, Muscarinic acetylcholine receptor M2 (Homo sapiens, UniProt P08172).
T3 sequence (P08172 whole entry): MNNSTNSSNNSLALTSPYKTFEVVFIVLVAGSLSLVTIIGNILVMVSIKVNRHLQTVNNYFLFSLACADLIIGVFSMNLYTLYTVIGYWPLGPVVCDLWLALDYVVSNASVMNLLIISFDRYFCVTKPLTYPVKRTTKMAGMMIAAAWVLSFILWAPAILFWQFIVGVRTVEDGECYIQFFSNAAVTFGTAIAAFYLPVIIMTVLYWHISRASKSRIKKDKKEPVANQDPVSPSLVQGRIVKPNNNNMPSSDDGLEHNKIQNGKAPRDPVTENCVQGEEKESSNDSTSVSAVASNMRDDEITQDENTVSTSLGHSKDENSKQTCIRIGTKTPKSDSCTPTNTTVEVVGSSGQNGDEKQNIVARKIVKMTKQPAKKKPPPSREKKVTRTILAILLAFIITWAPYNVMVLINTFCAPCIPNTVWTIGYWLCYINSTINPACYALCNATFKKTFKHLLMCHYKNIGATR
It counts as functional, cell-based.

Experiment [10] addresses Delta-type opioid receptor (Homo sapiens, UniProt P41143).
Experiment [11] has as its target T3, Muscarinic acetylcholine receptor M2. Format: functional, cell-based. This is another data set of the same source.
Experiment [12] has as its target T4, Equilibrative nucleoside transporter 1 (Homo sapiens, UniProt Q99808).
T4 sequence (Q99808 whole entry): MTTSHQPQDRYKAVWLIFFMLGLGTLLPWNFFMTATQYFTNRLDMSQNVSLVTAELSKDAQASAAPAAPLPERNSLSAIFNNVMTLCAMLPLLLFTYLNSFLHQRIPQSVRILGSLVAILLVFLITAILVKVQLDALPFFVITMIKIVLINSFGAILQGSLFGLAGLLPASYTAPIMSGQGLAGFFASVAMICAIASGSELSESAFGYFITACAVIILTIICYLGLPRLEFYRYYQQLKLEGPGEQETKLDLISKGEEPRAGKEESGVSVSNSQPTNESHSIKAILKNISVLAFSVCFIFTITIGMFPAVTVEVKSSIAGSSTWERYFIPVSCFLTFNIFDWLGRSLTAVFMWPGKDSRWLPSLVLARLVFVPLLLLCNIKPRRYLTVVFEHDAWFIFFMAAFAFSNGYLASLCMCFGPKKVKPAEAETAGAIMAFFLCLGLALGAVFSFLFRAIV

Experiment [13] addresses Gamma-aminobutyric acid receptor subunit alpha-1 (Rattus norvegicus, UniProt P62813).

For 13 compounds, AC50 results are on record in ChEMBL document CHEMBL5291721, “A preclinical secondary pharmacology resource illuminates target-adverse drug reaction associations of marketed drugs” (Nat Commun, 2023).

Where “and” joins values, the source holds several entries; their conditions need not be identical. Equal entries are not always repeated. Where only a bound is given, the exact number is not on record here.
Note: assay procedure not described here.

Sequence of Voltage-gated inwardly rectifying potassium channel KCNH2 (Q12809 whole entry): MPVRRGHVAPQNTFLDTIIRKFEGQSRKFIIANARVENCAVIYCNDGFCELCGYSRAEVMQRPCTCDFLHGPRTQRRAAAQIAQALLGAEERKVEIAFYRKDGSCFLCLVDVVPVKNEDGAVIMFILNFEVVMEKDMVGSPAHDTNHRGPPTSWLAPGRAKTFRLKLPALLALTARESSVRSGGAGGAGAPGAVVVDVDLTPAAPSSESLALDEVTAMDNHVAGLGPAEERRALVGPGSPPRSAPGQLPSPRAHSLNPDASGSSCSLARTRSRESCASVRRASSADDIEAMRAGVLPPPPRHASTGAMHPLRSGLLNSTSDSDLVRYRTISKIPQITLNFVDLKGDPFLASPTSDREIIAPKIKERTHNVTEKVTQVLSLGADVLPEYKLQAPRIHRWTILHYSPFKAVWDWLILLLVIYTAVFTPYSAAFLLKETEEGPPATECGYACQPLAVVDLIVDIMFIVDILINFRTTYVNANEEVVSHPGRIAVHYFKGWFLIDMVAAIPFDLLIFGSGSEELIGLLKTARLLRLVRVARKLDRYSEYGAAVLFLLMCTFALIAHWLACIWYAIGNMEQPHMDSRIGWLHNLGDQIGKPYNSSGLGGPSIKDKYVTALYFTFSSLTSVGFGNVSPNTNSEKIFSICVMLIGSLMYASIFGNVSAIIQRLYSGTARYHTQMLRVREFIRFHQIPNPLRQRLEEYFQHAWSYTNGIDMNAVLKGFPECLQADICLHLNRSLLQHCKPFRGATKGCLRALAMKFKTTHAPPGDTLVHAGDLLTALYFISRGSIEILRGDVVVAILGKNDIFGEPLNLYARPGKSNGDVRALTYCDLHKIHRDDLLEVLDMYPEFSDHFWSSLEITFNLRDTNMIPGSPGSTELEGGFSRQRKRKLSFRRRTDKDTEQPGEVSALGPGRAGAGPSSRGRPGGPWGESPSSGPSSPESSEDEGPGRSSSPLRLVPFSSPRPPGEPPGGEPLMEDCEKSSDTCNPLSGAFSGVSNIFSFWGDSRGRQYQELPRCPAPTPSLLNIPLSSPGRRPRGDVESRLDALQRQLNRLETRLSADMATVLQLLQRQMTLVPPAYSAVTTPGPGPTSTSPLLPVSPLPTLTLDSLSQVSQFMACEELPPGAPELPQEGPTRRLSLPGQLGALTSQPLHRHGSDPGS
Sequence of 3',5'-cyclic-AMP phosphodiesterase 4D (Q08499 whole entry): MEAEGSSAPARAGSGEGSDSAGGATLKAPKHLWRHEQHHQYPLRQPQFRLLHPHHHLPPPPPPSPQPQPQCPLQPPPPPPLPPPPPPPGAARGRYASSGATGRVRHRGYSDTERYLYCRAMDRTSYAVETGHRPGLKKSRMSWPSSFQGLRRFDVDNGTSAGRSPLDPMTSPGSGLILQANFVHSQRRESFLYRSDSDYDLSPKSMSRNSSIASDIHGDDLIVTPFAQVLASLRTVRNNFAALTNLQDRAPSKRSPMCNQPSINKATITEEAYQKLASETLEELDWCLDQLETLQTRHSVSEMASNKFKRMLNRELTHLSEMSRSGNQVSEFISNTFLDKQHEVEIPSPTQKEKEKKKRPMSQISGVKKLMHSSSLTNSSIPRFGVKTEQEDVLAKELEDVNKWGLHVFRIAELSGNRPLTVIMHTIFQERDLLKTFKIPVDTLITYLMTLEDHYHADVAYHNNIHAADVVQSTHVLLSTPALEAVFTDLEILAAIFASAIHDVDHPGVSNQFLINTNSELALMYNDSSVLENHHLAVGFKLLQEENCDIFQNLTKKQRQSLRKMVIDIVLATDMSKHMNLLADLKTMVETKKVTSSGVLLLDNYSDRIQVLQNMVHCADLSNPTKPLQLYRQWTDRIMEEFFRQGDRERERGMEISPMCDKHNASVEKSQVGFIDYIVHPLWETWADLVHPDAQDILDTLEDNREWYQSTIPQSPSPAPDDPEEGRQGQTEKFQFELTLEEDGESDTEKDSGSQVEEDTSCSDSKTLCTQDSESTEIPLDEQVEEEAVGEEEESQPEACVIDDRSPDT
Sequence of Growth hormone secretagogue receptor type 1 (Q92847 whole entry): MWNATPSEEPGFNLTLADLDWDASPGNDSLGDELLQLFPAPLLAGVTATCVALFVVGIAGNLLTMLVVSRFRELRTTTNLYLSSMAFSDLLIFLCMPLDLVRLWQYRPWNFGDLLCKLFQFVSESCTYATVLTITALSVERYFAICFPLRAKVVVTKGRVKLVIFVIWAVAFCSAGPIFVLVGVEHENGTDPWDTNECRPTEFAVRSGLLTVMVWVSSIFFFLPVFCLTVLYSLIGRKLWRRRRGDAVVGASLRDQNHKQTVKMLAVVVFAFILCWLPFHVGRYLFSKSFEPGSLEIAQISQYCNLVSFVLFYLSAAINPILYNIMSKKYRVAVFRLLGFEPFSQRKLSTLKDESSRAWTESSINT
Sequence of Beta-1 adrenergic receptor (P08588 whole entry): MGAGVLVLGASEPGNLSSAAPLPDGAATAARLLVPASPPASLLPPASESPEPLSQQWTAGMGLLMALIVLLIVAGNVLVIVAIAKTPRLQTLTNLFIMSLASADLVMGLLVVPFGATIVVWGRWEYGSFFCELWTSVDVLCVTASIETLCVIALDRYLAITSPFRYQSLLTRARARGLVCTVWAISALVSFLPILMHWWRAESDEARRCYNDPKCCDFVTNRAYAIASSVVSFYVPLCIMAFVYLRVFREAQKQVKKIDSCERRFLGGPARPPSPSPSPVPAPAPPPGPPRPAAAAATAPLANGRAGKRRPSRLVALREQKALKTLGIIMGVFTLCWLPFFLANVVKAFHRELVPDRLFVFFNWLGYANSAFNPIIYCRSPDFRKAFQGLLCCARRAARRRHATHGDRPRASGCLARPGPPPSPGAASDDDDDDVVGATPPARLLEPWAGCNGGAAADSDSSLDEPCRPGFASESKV
Sequence of 5-hydroxytryptamine receptor 2B (P41595 whole entry): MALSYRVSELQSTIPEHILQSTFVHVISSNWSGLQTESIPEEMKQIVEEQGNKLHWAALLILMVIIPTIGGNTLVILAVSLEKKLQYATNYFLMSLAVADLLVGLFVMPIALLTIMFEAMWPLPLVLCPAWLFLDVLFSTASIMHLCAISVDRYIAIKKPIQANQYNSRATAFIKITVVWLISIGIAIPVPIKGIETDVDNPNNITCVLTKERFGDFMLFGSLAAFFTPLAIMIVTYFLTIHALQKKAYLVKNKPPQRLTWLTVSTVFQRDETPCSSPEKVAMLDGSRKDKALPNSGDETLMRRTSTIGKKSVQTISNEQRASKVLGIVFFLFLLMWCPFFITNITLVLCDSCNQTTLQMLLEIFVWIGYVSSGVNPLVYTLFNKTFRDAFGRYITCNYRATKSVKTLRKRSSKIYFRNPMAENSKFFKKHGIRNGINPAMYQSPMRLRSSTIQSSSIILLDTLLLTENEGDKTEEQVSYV
Sequence of Delta-type opioid receptor (P41143 whole entry): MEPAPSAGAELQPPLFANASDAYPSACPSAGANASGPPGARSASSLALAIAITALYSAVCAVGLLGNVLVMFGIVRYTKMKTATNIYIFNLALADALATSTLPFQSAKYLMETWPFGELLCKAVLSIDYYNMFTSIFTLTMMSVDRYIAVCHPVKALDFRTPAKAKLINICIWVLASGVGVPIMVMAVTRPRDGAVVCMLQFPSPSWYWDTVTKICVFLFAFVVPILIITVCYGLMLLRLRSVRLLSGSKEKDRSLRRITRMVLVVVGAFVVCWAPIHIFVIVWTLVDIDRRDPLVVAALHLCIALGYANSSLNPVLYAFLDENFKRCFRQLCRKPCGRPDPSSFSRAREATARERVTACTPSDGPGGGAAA
Sequence of Vasopressin V2 receptor (P30518 whole entry): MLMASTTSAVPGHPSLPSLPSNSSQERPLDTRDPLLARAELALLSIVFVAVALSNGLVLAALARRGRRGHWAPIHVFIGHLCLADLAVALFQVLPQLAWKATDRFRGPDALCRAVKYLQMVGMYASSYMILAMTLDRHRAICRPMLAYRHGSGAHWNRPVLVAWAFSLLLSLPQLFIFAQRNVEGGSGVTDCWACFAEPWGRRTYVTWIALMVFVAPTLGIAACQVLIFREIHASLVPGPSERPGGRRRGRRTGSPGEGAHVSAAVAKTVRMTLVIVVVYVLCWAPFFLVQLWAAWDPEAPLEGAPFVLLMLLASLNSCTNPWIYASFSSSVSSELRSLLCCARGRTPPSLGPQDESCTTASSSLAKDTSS
Sequence of Gamma-aminobutyric acid receptor subunit alpha-1 (P62813 whole entry): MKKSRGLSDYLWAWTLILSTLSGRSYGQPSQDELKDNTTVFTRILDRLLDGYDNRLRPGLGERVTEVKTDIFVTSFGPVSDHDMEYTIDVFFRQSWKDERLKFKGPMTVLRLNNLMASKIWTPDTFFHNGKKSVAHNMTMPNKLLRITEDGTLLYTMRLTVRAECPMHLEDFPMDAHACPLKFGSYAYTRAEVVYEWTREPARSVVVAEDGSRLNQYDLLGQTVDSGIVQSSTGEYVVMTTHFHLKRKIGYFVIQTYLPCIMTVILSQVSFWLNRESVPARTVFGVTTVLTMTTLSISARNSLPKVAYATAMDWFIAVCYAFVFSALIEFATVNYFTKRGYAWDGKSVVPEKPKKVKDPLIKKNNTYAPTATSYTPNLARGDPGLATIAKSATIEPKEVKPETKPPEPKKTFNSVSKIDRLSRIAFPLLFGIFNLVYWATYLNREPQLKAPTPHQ

Take `C[N+]12CCC(CC1)C(OC(=O)C(O)(c1ccccc1)c1ccccc1)C2` (centres undefined): the AC50 in [1] was above 30 µM; in experiment [2], above 30 µM; in experiment [3], 1.3 µM; in experiment [4] it was above 30 µM; in experiment [5], above 30 µM; in experiment [6], above 30 µM. For the same compound, the AC50 (in [7]; on Vasopressin V2 receptor; in [8]; in experiment [9]; in experiment [10]) was above 30 µM in each case.
On to `CO/N=C(\C(=O)N[C@@H]1C(=O)N2C(C(=O)O)=CCS[C@H]12)c1csc(N)n1` [CEFTIZOXIME], for which the half-maximal activity concentration (AC50) in experiment [11], in experiment [2], in experiment [3], in experiment [4], in experiment [5] and in experiment [6] was above 30 µM in each case. Further, the half-maximal activity concentration (AC50) (in experiment [7]; at Vasopressin V2 receptor; in experiment [8]; in experiment [9]; in [12]) was above 30 µM in each case.
Take `CO/N=C(\C(=O)N[C@@H]1C(=O)N2C(C(=O)O)=C(CSc3nc(=O)c(=O)[nH]n3C)CS[C@H]12)c1csc(N)n1` [CEFTRIAXONE]: the concentration at half-maximal activity (AC50) in [11], in [1], in [2], in experiment [3], in experiment [4] and in experiment [5] was above 30 µM throughout. For the same compound, the AC50 (in experiment [6]; in experiment [7]; on Vasopressin V2 receptor; in experiment [8]; in [9]; in [10]) was above 30 µM in each case. The compound also returned an AC50 in [12] above 30 µM.
`COc1cc(N)c(Cl)cc1C(=O)NC1CCN(CCCOc2ccc(F)cc2)CC1OC` (centres undefined) [CISAPRIDE]: the AC50 in experiment [11] is above 10 µM; in experiment [1], above 10 µM; in [2], above 10 µM; in experiment [5], above 30 µM; in experiment [6], above 30 µM; in experiment [13] it was above 10 µM. Further, the AC50 is above 30 µM at Vasopressin V2 receptor; above 30 µM in [8]; above 10 µM in [9]; above 10 µM in [10]; above 30 µM in experiment [12].
In the case of `CC(C)NC[C@H](O)COc1ccc(CC(N)=O)cc1` [ESATENOLOL], the AC50 in experiment [1] is above 10 µM; in experiment [4] it was above 10 µM; in [5], above 30 µM; in experiment [6], above 30 µM; at Vasopressin V2 receptor, above 30 µM; in [8], above 10 µM. Besides, the AC50 in [10] was above 10 µM; in [12] it was above 30 µM.
Take `CCc1cc2c(s1)-n1c(C)nnc1CN=C2c1ccccc1Cl` [ETIZOLAM]: the AC50 in experiment [11], in [1], in experiment [2], in [3], in experiment [4] and in experiment [5] was above 30 µM each time. For the same compound, the half-maximal activity concentration (AC50) is above 30 µM in experiment [6]; above 30 µM in experiment [7]; above 30 µM at Vasopressin V2 receptor; 19 µM in experiment [8]; above 30 µM in [9]; above 30 µM in [10]. This compound also yielded an AC50 in experiment [12] above 30 µM.
Turning to `CCOC(=O)c1ncn2c1CN(C)C(=O)c1cc(F)ccc1-2` [FLUMAZENIL], the AC50 in experiment [11], in experiment [1], in experiment [2], in [3], in experiment [4] and in experiment [5] was above 30 µM throughout. Further, the AC50 (in [6]; in [7]; at Vasopressin V2 receptor; in experiment [8]; in [9]; in [10]) was above 30 µM throughout. In experiment [12], this compound came in with an AC50 above 30 µM.
As to `Fc1ccc([C@@H]2CCNC[C@H]2COc2ccc3c(c2)OCO3)cc1` [PAROXETINE], the AC50 in experiment [1] is above 10 µM; in [2], above 10 µM; in experiment [5] it was above 30 µM; in [6], above 30 µM; in experiment [7], 9.9 µM and > 30 µM; in experiment [13], above 10 µM. Besides, the AC50 is above 30 µM on Vasopressin V2 receptor, above 30 µM in experiment [8], 0.83 µM in experiment [10] and above 30 µM in experiment [12].
Turning to `c1ccc(C2(N3CCCCC3)CCCCC2)cc1` [PHENCYCLIDINE], the AC50 in experiment [11] was above 30 µM; in experiment [1], 0.288 µM; in experiment [2], above 30 µM; in experiment [3], 12 µM; in [4] it was above 30 µM; in experiment [5], above 30 µM. Also, the AC50 (in experiment [6]; in experiment [7]; on Vasopressin V2 receptor; in [8]; in [9]; in experiment [10]) was above 30 µM each time. Also, the AC50 in [12] is above 30 µM.
On to `O=c1c(O)c(-c2ccc(O)c(O)c2)oc2cc(O)cc(O)c12` [QUERCETIN], for which the concentration at half-maximal activity (AC50) in [11] is 10 µM; in experiment [3], above 30 µM; in [4] it was above 30 µM; in experiment [5] it was above 30 µM; in experiment [6], above 30 µM; in experiment [7], above 30 µM. Further, the half-maximal activity concentration (AC50) in experiment [8] was above 10 µM; in [9] it was above 10 µM; in experiment [10], above 30 µM; in [12], above 30 µM.
The compound `CCN(CC)CCCC(C)Nc1c2ccc(Cl)cc2nc2ccc(OC)cc12` (centres undefined) [QUINACRINE] registered an AC50 in experiment [3] of 0.7 µM.
For the compound `CCCCCCCC(=O)CC[C@@H]1[C@@H](C/C=C\CCCC(=O)OC(C)C)[C@@H](O)C[C@H]1O` [UNOPROSTONE ISOPROPYL], the AC50 was above 30 µM in [7], 9.6 µM in [8] and above 30 µM in [10].
For `CC(C(=O)O)c1ccc2c(c1)CC(=O)c1ccccc1S2` (centres undefined) [ZALTOPROFEN], the AC50 in [11], in [1], in [3], in [4], in experiment [5] and in [6] was above 30 µM each time. In addition, the AC50 in experiment [7] was above 30 µM; at Vasopressin V2 receptor it was above 30 µM; in experiment [8], 24 µM; in experiment [9], above 30 µM; in experiment [10] it was above 30 µM; in experiment [12] it was above 30 µM.
